“Also recorded” adds a separate entry of the source.
Key:
Hepa1-6 cell line [1] = assay: Cellular ATP content (CellTiter-Glo Assay); format: cell-based; conditions: Hepa1-6, exposure 24 h, FIG. 1a
Description: (§1) The tested compounds were dissolved in DMSO at a concentration of 100 mM and further diluted in PBS supplemented with 10% (v/v) DMSO. When necessary dissolution was enhanced by incubation at 50° C. and sonication at maximum output for 10 min. Hepa1.6 cell line (#CRL-1830, ATCC) was cultured in DMEM culture medium containing 1 g L^−1 glucose, 10% fetal bovine serum, 2 mM glutamine, 100 U mL^−1 Penicillin and 100 μg mL^−1 Streptomycin and 30 μM oleic acid. Cells were seeded at a density of 20000 cells per well in 96 well plates and incubated for several hours to allow the cells to attach at 37° C. with 5% CO2. Cells were then supplemented with the test substances at indicated concentrations (0.01-50 μM) and incubated for indicated time periods (24-48 h).
For all assays the tested substances were further diluted in 10% DMSO/PBS and added to the cells at the indicated concentrations with a final DMSO concentration of 0.01%. […]
Cells were treated for 24 h with the test substances at the indicated concentrations. The cellular ATP content was assessed using the CellTiter-Glo Assay (#G7571, Promega) as per the manufacturer's instructions. Luminescence was detected in a plate reader spectrophotometer. The results were normalized to the luminescence intensity measured in mock treated negative controls and the positive controls treated with 10 μM oligomycin.

Hepa1-6 cell line [2] = assay: Mitochondrial membrane potential (ΔΨm), TMRE fluorophore; format: cell-based; conditions: FIG. 1b; for reduce ΔΨm: Hepa1-6, exposure 24 h; for Emax at 1 µM: Mus musculus, Hepa1-6, concentration of 1 μM, read-out: decrease of normalized ΔΨm, maximum response
Description: as §1
(§2) For all assays the tested substances were further diluted in 10% DMSO/PBS and added to the cells at the indicated concentrations with a final DMSO concentration of 0.01%. Negative vehicle controls were treated with 0.01% DMSO. Positive control was treated with 10 μM oligomycin or 10 μM FCCP (Carbonyl cyanide-4-(trifluoromethoxy) phenylhydrazone).
Mitochondrial membrane potential (ΔΨm) was assessed using the tetramethylrhodamine (TMRE) fluorophore. The cells were incubated with the test substances for 24 h and then loaded with TMRE at a final concentration of 200 nM for 45 min at 37° C. Positive control wells were treated with 10 μM FCCP 30 min before loading the cells with TMRE. The medium was removed and the cells were washed with PBS and supplemented with fresh culture medium. Fluorescence intensity of TRME was immediately measured (ex/em: 545/580 nm) using a plate reader spectrophotometer. The results were normalized to the fluorescence intensity measured in mock treated negative controls and the positive controls treated with 10 μM FCCP.

Hepa1-6 cell line [3] = assay: Cellular redox potential (AlamarBlue); format: cell-based; conditions: Hepa1-6, 24 h, FIG. 1c
Description: as §1, §2
Cells were treated for 24 h with the test substances or controls ([…] DMSO, 10 μM FCCP and 10 μM oligomycin). […] Fluorescence was measured at ex/em: 550/590 nm. […]

Hepa1-6 cell line [4] = assay: BrdU incorporation/cell proliferation assay; format: cell-based; conditions: for suppression of cells proliferation: Hepa1-6, exposure 48 h, FIG. 1d
Description: as §1, §2
Cells were incubated for a total of 48 h with the tested substances. During the last 12 h the cells were supplemented with 200 μM BrdU (#ab126556, Abcam). After the incubation period cells were washed with PBS. Following that the cells fixed and permeabilized using the reagents of the kit and labeled for 1 h with anti-BrdU antibodies conjugated with peroxidase. After washing the fixed cells 5 times with PBS the wells were incubated with peroxidase substrate TMB. The reaction was stopped after 30 min. The signal intensity was measure at absorbance 450 nm. Results were normalized to controls samples treated with vehicle (0.01% DMSO, negative control) or 10 μM oligomycin.

Hepa1-6 cell line [5] = assay: Cytotoxicity (Pierce LDH Cytotoxicity Assay Kit); format: cell-based; conditions: Hepa1-6, FIG. 1e
Description: as §1, §2
Cytotoxicity was assessed using the Pierce LDH Cytotoxicity Assay Kit (#88953, Thermo Fisher). […] Absorbance was measure at 490 nm and background at 680 nm. […] Cytotoxicity was expressed as the percentage of maximum signal intensity observed in freshly lysed cells.

CD3+ T lymphocytes = assay: Activation induced proliferation of lymphocytes (PMA/Ionomycin), Cytopainter flow cytometry, T cells; format: cell-based, C57BL/6J mice; conditions: stimulation with PMA/Ionomycin; for division index of T-cells: FIG. 2a; for expansion index of T-cells: FIG. 2b
Description: (§3) Spleen and lymph nodes were collected from C57BL/6J mice and stored in RPMI medium on ice until further processing. Further procedures were performed using a laminar flow hood. Single cell suspensions were created by shearing the organs between two microscopy slides. Cell suspensions were passed through a 70 μm cell strainer to exclude remaining tissue chunks. Cells were washed in PBS and centrifuged at 300 g for 5 min at 4° C. During the preparation of splenic single cell suspension, erythrocytes were removed by incubating the cells for 5 min at rt in RBC lysis buffer followed by extensive washing in PBS. Cells were resuspended in RPMI medium and cell count was determined. Lymphocytes were kept on ice until further use.
(§4) A total 17×10^6 cells were suspended in 15 mL Krebs Ringer buffer (with HEPES, 1 g L^−1 glucose, 1 mM pyruvate), supplemented with 30 μL of Cytopainter blue stock solution (500×) (#ab176726, Abcam) and incubated for 30 min at 37° C. to let the CFSE analog accumulate in the cells. The remaining Cytopainter reagent that was not incorporated into the cells was quenched by addition of 10 mL FCS and incubated for 5 min at rt. Another 25 mL of PBS were added and cells were centrifuged at 300 g for 5 min at rt. The cells were then suspended in 12.75 mL of complete RPMI culture medium. 2×10^5 cells in a volume of 150 μL were added to the wells of 96 well plates. The cytopainter-loaded cells were supplemented with the test substances, or DMSO as a negative control and oligomycin as a positive control.
(§5) Cytopainter loaded lymphocytes were stimulated with PMA (15 ng mL^−1) and Ionomycin (0.5 μg mL^−1). All cells were incubated for 60 h at 37° C., 5% CO2. Lymphocytes were then washed with 2% FBS in PBS, supplemented with anti-CD16/CD32 antibodies (to block unspecific Fc-receptor binding) and incubated for 10 min at 4° C. Subsequently cells were incubated for 20 min at 4° C. with anti-CD3 antibodies conjugated to FITC (clone: 145-2C11, #11-0031-82, eBioscience) and anti-B220 antibodies conjugated to PerCP-Cy5.5 (clone:RA3-6B2, #45-0452-82, eBioscience) to label T cells and B cells, respectively. Cells were subsequently washed with 2% FBS in PBS analyzed.
(§6) Cell proliferation was then analyzed by assessing the fluorescence intensity of cytopainter in the cells by flow cytometry. Reduced intensity of cytopainter dye indicates cells that have undergone cell division. Data was analyzed using FlowJo v10.4.2. Proliferation parameters were derived using the FlowJo Proliferation Tool. The Expansion index determines the fold-expansion of the overall culture. The Division index expresses the average number of cell divisions that a cell in the original population has undergone and also includes the cells that have never divided.

B220+ B lymphocytes = assay: Activation induced proliferation of lymphocytes (PMA/Ionomycin), Cytopainter flow cytometry, B cells; format: cell-based, C57BL/6J mice; conditions: stimulation with PMA/Ionomycin; for division index of B-cells: FIG. 2c; for expansion index of B-cells: FIG. 2d
Description: as §3, §4, §5, §6

isolated T cells = assay: Activation induced proliferation of isolated T cells, Cytopainter flow cytometry; format: cell-based, C57BL/6J mice; conditions: 2f
Description: as §3
T cell was enriched from the splenocytes by negative selection using magnetic bead separation (Pan T cell isolation kit II, mouse, #130-095-130, Miltenyi) achieving more than 90% purity. The cells were kept in RPMI medium until further use.
as §4
Cytopainter loaded T cells were stimulated using two different approaches. Either T cells stimulated by plate bound anti-CD3 antibodies (coated at 1 μg/mL) and soluble anti-CD28 antibodies (at a final concentration of 0.2 μg mL^−1), or in separate replicates by addition of the cytokines IL-2 (50 ng mL^−1) and IL-7 (10 ng mL^−1) to stimulate T cells proliferation and survival.
as §6

[6] = stimulation with anti-CD3/CD28 antibodies, FIGS. 2e
[7] = stimulation with cytokines IL-2/IL-7, FIGS. 2e

| Structure (SMILES) | deplete ATP production (Hepa1-6 cell line [1]) | reduce ΔΨm (Hepa1-6 cell line [2]) [%] | Emax at 1 µM (Hepa1-6 cell line [2]) [%] | effect on redox potential (Hepa1-6 cell line [3]) | suppression of cells proliferation (Hepa1-6 cell line [4]) | cytotoxic necrosis (Hepa1-6 cell line [5]) | division index of T-cells (CD3+ T lymphocytes) | expansion index of T-cells (CD3+ T lymphocytes) | division index of B-cells (B220+ B lymphocytes) | expansion index of B-cells (B220+ B lymphocytes) | activation-induced proliferation of isolated T-cells (isolated T cells; [6]) | activation-induced proliferation of isolated T-cells (isolated T cells; [7]) | rank in diminishing the proliferation of Hepa1-6 (Hepa1-6 cell line [4]; Hepa1-6, 1d versus 1q) |
| --- | --- | --- | --- | --- | --- | --- | --- | --- | --- | --- | --- | --- | --- |
| C[C@]12CCC(=O)C[C@H]1N1CCc3c([nH]c4ccccc34)[C@@H]1CO2 [1q, (2aS,6aR,14bR)-2a-Methyl-3,4,6,6a,8,9,14,14b-octahydro-1H-benzo[5′,6′][1,4]oxazino[4′,3′:1,2]pyrido[3,4-k]indol-5(2aH)-one] | ≤ 50% | 77 | 90 | increase; also recorded: strongly affected | potent suppression | without noticeable cytotoxic necrosis | non-significant effects | non-significant effects | non-significant effects | non-significant effects | did not significantly affect | did not significantly affect |  |
| C[C@]12C=CC(=O)C[C@H]1N1CCc3c([nH]c4ccccc34)[C@@H]1CO2 [compound 1d, (2aS,6aR,14bR)-2a-Methyl-6,6a,8,9,14,14b-hexahydro-1H-benzo[5′,6′][1,4]oxazino[4′,3′:1,2]pyrido[3,4-b]indol-5(2 aH)-one] | up to 60% | 82 | 82 | increase; also recorded: strongly affected | potent suppression | without noticeable cytotoxic necrosis | non-significant effects | non-significant effects | non-significant effects | non-significant effects | did not significantly affect | did not significantly affect | most potent |

— patent publication US12269821B2, “Discovery of novel first in class nature-inspired compounds targeting the mitochondrial function and pharmaceutical composition thereof” (University of Sharjah, priority 2018, dated 2025)
